The record followed here is patent US5698670A, “Aureobasidins” (priority 1993, dated 1997).

What is called MIC is the smallest concentration in the dilution series that meets the test's criterion for growth inhibition. Low values mean greater potency, high ones weaker potency.

Values after ≈ are worked out from the molar mass of the structure shown. Read-outs that look alike come from different tables or passages of the source. Numbered stars: 1 amine (or outer) side, 2 acyl side, 3 side chain; on linkers, the order of the positions; unused ones are H or OH. Square brackets hold non-standard residues; d marks the D form. Peptide text beside a SMILES is read from it. * marks the point of attachment. X1 = CC[C@@H](C)[C@@H](O[*:1])C(=O)[*:2]; NMeVal(β-OH) = CN[C@H](C(=O)O)C(C)(C)O; aIle = CC[C@@H](C)[C@H](N)C(=O)O; NMeV = CN[C@H](C(=O)O)C(C)C; dNMeA = CN[C@H](C)C(=O)O; Bn = c1ccc(C*)cc1

For data set [1] the following is noted: amide bond, 27-membered ring, PyBroP/DIEA, CH2Cl2.
The test system of data set [2] is Candida albicans TIMM0171. Put plainly: MIC by agarose plate dilution method. The data set is classed as cell-based. The conditions noted are these: saburo-dextrose agarose culture, 30° C., 2 days. The protocol:
(§1) MIC was measured by agarose plate dilution method (cultivated at 30° C. for 2 days) using saburo-dextrose agarose culture (glucose 2 W/V %, polipeptone 1 W/V %, agarose 1.5 W/V %). Control was Aureobasidin A (AbA).

In data set [3] the test system is Candida albicans TIMM0136. Put plainly: MIC by agarose plate dilution method. The data set is classed as cell-based. To be noted: saburo-dextrose agarose culture, 30° C., 2 days. The protocol:
as §1

A further data set relates to Candida kefyr TIMM0301. In words: MIC by agarose plate dilution method. The data set is classed as cell-based. To be noted: saburo-dextrose agarose culture, 30° C., 2 days. The protocol: as §1
Data set [4] has as its system Candida glabrata TIMM1062. In words: MIC by agarose plate dilution method. To be noted: saburo-dextrose agarose culture, 30° C., 2 days. The format is cell-based. The protocol: as §1
Data set [5] relates to Cryptococcus neoformans TIMM0354. The data set is classed as cell-based. Here is the method:
as §1

In data set [1] (from H-aIle-MeVal-Leu-βHOMeVal-dHmp-MeVal-Phe-dMeAla-Pro-OH, 0.97 mM, 25.0 °C), `CC[C@@H](C)[C@@H]1NC(=O)[C@@H]2CCCN2C(=O)[C@@H](C)N(C)C(=O)[C@H](Cc2ccccc2)NC(=O)[C@H](C(C)C)N(C)C(=O)[C@@H]([C@H](C)CC)OC(=O)[C@H](C(C)(C)O)N(C)C(=O)[C@H](CC(C)C)NC(=O)[C@H](C(C)C)N(C)C1=O` [Compound 1, cyclo(L -aIle-L -MeVal-L -Leu-L -βHOMeVal-D -Hmp-L -MeVal-L -Phe-D -MeAla-L -Pro)] (cyclo([aIle][NMeV]L[NMeVal(β-OH)][X1][NMeV]F[dNMeA]P)) displayed a ring closure, isolated yield of 55.5%. The MIC in data set [2] worked out at 0.05 µg/mL (≈ 0.0488 µM); in data set [3], 0.05 µg/mL (≈ 0.0488 µM); against Candida kefyr TIMM0301 it was 0.20 µg/mL (≈ 0.195 µM); in data set [4], 0.20 µg/mL (≈ 0.195 µM); in data set [5] (Cryptococcus neoformans TIMM0354, saburo-dextrose agarose culture, 30° C., 2 days), 3.12 µg/mL (≈ 3.04 µM).
For the compound `CC[C@@H](C)[C@@H]1NC(=O)[C@@H]2CCCN2C(=O)[C@@H](COCc2ccccc2)N(C)C(=O)[C@H](CC2CCCCC2)NC(=O)[C@H](C(C)C)N(C)C(=O)[C@@H]([C@H](C)CC)OC(=O)[C@H](C(C)(C)O)N(C)C(=O)[C@H](CC(C)C)NC(=O)[C@H](C(C)C)N(C)C1=O`, the ring closure, isolated yield in data set [1] (from H-aIle-MeVal-Leu-βHOMeVal-dHmp-MeVal-Cha-dMeSer(Bzl)-Pro-OH, 1.0 mM) stood at 34.3%.
Consider `CC[C@@H](C)[C@@H]1NC(=O)[C@@H]2CCCN2C(=O)[C@@H](C)N(C)C(=O)[C@H](CC(C)C)NC(=O)[C@H](C(C)C)N(C)C(=O)[C@@H]([C@H](C)CC)OC(=O)[C@H](C(C)(C)O)N(C)C(=O)[C@H](CC(C)C)NC(=O)[C@H](C(C)C)N(C)C1=O` [Compound 5, cyclo(L -aIle-L -MeVal-L -Leu-L -βHOMeVal-D -Hmp-L -MeVal-L -Leu-D -MeAla-L -Pro)] (cyclo(L[dNMeA]P[aIle][NMeV]L[NMeVal(β-OH)][X1][NMeV])), for which, in data set [1] (from H-aIle-MeVal-Leu-βHOMeVal-dHmp-MeVal-Leu-dMeAla-Pro-OH, 1.0 mM, 25.0 °C), the ring closure, isolated yield amounted to 39.4%. For the same compound, the MIC in data set [5] (TIMM0354) was 0.10 to 0.39 µg/mL.
Consider `CC[C@@H](C)[C@@H]1NC(=O)[C@@H]2CCCN2C(=O)[C@@H](C)N(C)C(=O)[C@H](COCc2ccccc2)NC(=O)[C@H](C(C)C)N(C)C(=O)[C@@H]([C@H](C)CC)OC(=O)[C@H](C(C)(C)O)N(C)C(=O)[C@H](CC(C)C)NC(=O)[C@H](C(C)C)N(C)C1=O` [Compound 7, cyclo(L -aIle-L -MeVal-L -Leu-L -βHOMeVal-D -Hmp-L -MeVal-L -Ser(Bzl)-D -MeAla-L -Pro)] (cyclo(L[NMeVal(β-OH)][X1][NMeV]S(Bn)[dNMeA]P[aIle][NMeV])), for which the ring closure, isolated yield in data set [1] (from H-aIle-MeVal-Leu-βHOMeVal-dHmp-MeVal-Ser(Bzl)-dMeAla-Pro-OH, 1.0 mM, 25.0 °C) is 45.2%. This compound also returned an MIC in data set [5] (TIMM0354) of 0.10 to 0.39 µg/mL.
`CC[C@@H](C)[C@@H]1NC(=O)[C@@H]2CCCN2C(=O)[C@@H](C(C)C)N(C)C(=O)[C@H](Cc2ccccc2)NC(=O)[C@H](C(C)C)N(C)C(=O)[C@@H]([C@H](C)CC)OC(=O)[C@H](C(C)(C)O)N(C)C(=O)[C@H](CC(C)C)NC(=O)[C@H](C(C)C)N(C)C1=O` had a ring closure, isolated yield in data set [1] (from H-aIle-MeVal-Leu-βHOMeVal-dHmp-MeVal-Phe-dMeVal-Pro-OH, 1.0 mM, 25.0 °C) of 35%.
Consider `CC[C@@H](C)[C@@H]1NC(=O)[C@@H]2CCCN2C(=O)[C@@H](C)N(C)C(=O)[C@H](Cc2ccc(F)cc2)NC(=O)[C@H](C(C)C)N(C)C(=O)[C@@H]([C@H](C)CC)OC(=O)[C@H](C(C)(C)O)N(C)C(=O)[C@H](CC(C)C)NC(=O)[C@H](C(C)C)N(C)C1=O`, for which the ring closure, isolated yield in data set [1] (from H-aIle-MeVal-Leu-βHOMeVal-dHmp-MeVal-pFPhe-dMeAla-Pro-OH, 1.0 mM, 25.0 °C) worked out at 29.8%.
For the compound `CC[C@@H](C)[C@@H]1NC(=O)[C@@H]2CCCN2C(=O)[C@@H](C)N(C)C(=O)[C@H](Cc2ccc(OCc3ccccc3)cc2)NC(=O)[C@H](C(C)C)N(C)C(=O)[C@@H]([C@H](C)CC)OC(=O)[C@H](C(C)(C)O)N(C)C(=O)[C@H](CC(C)C)NC(=O)[C@H](C(C)C)N(C)C1=O`, in data set [1] (from H-aIle-MeVal-Leu-βHOMeVal-dHmp-MeVal-Tyr(Bzl)-dMeAla-Pro-OH, 1.0 mM), the ring closure, isolated yield amounted to 41.5%.
